Data: ChEMBL document CHEMBL6078728 (Bioorg Med Chem, 2025)
pIC50: −log10 of the molar value. Activity calls are given as the source filed them. No cut-off for these calls is given here.

Columns and labels:
[1] = Inhibition of NLRP3 inflammasome activation in LPS/ATP stimulated human THP-1 cells assessed as inhibition of IL-1beta production pretreated with compound for 15 mins followed by LPS and ATP addition and measured after 2 hrs by ELISA; type: cell-based
[2] = Drug concentration in male Sprague-Dawley rat plasma at 10 mg/kg, ip measured after 1 hr by LC-MS/MS analysis; type: ADME, organism-based
[3] = Drug concentration in male Sprague-Dawley rat brain at 10 mg/kg, ip measured after 1 hr by LC-MS/MS analysis; type: ADME, organism-based; settings: read-out: Ct
[4] = Ratio of drug concentration in brain to plasma in male Sprague-Dawley rat at 10 mg/kg, ip measured after 1 hr by LC-MS/MS analysis; type: ADME, organism-based; settings: brain and plasma, read-out: BPR
[5] = Inhibition of NLRP3 inflammasome activation in LPS primed mouse BMDM cells assessed as inhibition of IL-1beta production preincubated with compound for 1 hr followed by nigericin stimulation and measured after 1 hr by ELISA method; type: cell-based
[6] = molecular target: NACHT, LRR and PYD domains-containing protein 3 (Rattus norvegicus) (UniProt D4A523); settings: wistar, dose <= 30.0 mg/kg, route po, time 30.0 min
Sequence of NACHT, LRR and PYD domains-containing protein 3 (Rattus norvegicus) (D4A523 whole entry, the tested form may be a part): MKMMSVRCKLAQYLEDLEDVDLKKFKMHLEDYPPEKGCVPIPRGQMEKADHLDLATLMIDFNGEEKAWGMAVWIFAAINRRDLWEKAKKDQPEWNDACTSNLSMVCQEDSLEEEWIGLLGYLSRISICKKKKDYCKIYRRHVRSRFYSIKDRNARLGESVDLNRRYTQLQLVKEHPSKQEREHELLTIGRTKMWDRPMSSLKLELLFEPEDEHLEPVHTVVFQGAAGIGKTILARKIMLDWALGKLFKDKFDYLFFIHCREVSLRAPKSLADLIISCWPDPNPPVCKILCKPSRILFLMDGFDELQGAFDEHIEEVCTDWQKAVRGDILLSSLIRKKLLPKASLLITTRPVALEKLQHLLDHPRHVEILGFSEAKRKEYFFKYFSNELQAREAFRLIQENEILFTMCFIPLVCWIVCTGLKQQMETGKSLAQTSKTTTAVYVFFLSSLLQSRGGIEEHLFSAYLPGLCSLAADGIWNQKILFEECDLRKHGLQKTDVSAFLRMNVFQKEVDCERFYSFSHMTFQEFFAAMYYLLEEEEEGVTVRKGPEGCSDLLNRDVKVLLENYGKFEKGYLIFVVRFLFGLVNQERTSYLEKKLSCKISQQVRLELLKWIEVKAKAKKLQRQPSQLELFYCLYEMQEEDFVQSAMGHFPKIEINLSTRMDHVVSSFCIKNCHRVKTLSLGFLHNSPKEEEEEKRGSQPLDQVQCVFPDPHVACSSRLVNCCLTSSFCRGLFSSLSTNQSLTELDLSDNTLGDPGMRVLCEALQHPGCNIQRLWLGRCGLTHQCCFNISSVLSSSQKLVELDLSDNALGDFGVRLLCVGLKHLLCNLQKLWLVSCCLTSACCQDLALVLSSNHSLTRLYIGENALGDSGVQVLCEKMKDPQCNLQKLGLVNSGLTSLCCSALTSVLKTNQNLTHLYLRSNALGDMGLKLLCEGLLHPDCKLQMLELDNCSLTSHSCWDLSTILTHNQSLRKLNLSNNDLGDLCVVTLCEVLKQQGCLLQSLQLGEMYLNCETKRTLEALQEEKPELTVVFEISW

THP-1 = test: Antiinflammatory activity against LPS/ATP stimulated human THP-1 cells assessed as ASC speck formation by DAPI staining based cell analyzer; type: functional
[7] = Inhibition of NLRP3 inflammasome activation in LPS stimulated human THP-1 cells assessed as inhibition of TNF-alpha production pretreated with compound for 15 mins followed by LPS and ATP addition and measured after 2 hrs by ELISA; type: cell-based
[8] = Intrinsic clearance in human liver microsomes at 0.2 uM in presence of NADPH incubated for 30 mins by LC-MS/MS analysis; type: ADME, Microsome; settings: read-out: CLH
[9] = Intrinsic clearance in rat liver microsomes at 0.2 uM in presence of NADPH incubated for 30 mins by LC-MS/MS analysis; type: ADME, Microsome; settings: read-out: CLH
[10] = Ratio of drug concentration in brain to plasma in male Sprague-Dawley rat at 10 mg/kg, po measured after 1 hr by LC-MS/MS analysis; type: ADME, organism-based; settings: brain and plasma, read-out: BPR
[11] = molecular target: NACHT, LRR and PYD domains-containing protein 3 (Rattus norvegicus) (UniProt D4A523); test: In vivo inhibition of NLRP3 activation in LPS-induced male wistar rat model assessed as inhibition of IL-1 beta production in CSF at 0.3 mg/kg, po measured after 30 mins by Western blotting analysis; type: functional, organism-based
[12] = molecular target: NACHT, LRR and PYD domains-containing protein 3 (Rattus norvegicus) (UniProt D4A523); test: In vivo inhibition of NLRP3 activation in LPS-induced male wistar rat model assessed as inhibition of IL-1 beta production in CSF at 1 mg/kg, po measured after 30 mins by Western blotting analysis; type: functional, organism-based
[13] = molecular target: NACHT, LRR and PYD domains-containing protein 3 (Rattus norvegicus) (UniProt D4A523); test: In vivo inhibition of NLRP3 activation in LPS-induced male wistar rat model assessed as inhibition of IL-1 beta production in CSF at 3 mg/kg, po measured after 30 mins by Western blotting analysis; type: functional, organism-based
[14] = Inhibition of NLRP3 inflammasome activation in alpha-synuclein pre-formed fibril stimulated human THP-1 cells assessed as inhibition of IL-1beta production preincubated with compound for 15 mins followed by alpha-synuclein pre-formed fibril addition and measured after 24 hrs by ELISA; type: cell-based
Mus musculus [15] = test: Improvement of motor dysfunction in pathogenic alpha-synuclein induced male C57BL/6J mouse assessed as reduction in number of falls at 1 mg/kg, po administered once a day for 4 weeks and measured 1 hr after last administration by hanging wire test; type: functional, organism-based
Mus musculus [16] = test: Improvement of motor dysfunction in pathogenic alpha-synuclein induced male C57BL/6J mouse assessed as reduction in number of falls at 10 mg/kg, po administered once a day for 4 weeks and measured 1 hr after last administration by hanging wire test; type: functional, organism-based
[17] = Drug concentration in male Sprague-Dawley rat plasma at 5 mg/kg, ip measured after 1 hr by LC-MS/MS analysis; type: ADME, organism-based
[18] = Drug concentration in male Sprague-Dawley rat brain at 5 mg/kg, ip measured after 1 hr by LC-MS/MS analysis; type: ADME, organism-based; settings: read-out: Ct
[19] = Ratio of drug concentration in brain to plasma in male Sprague-Dawley rat at 5 mg/kg, ip measured after 1 hr by LC-MS/MS analysis; type: ADME, organism-based; settings: brain and plasma, read-out: BPR

Structure (SMILES)	pIC50 [1]	further results
Cc1c(NC[C@@H](C)O)nnc(-c2ccc(C(F)(F)F)cc2C(F)F)c1C	6.23	
OCCCNc1nnc(-c2ccccc2C(F)(F)F)c2ccccc12	5.28	
C[C@@H](O)CNc1nnc(-c2ccc(C(F)(F)F)cc2)c2ccccc12	6.85	
OCCCNc1nnc(-c2ccc(C(F)(F)F)cc2C(F)(F)F)c2ccccc12	6.96	
OCCCNc1nnc(-c2ccc(C(F)(F)F)c(F)c2)c2ccccc12	6.01	
CC(CCO)Nc1nnc(-c2ccc(C(F)(F)F)cc2)c2ccccc12 (stereo not given)	5.46	
OCCNc1nnc(-c2ccc(C(F)(F)F)cc2)c2ccccc12	6.21	
OCCCNc1nnc(-c2ccc(C(F)(F)F)cc2F)c2ccccc12	6.29	
Cc1c(N[C@@H]2CCC[C@H]2O)nnc(-c2ccc(C(F)(F)F)cc2O)c1C	7.55	
Cc1cc(C(F)(F)F)ccc1-c1nnc(NCCCO)c2ccccc12	6.31	
Cc1c(NC[C@@H](C)O)nnc(-c2ccc(C(F)(F)F)cc2O)c1C	7.85	
Cc1c(NC[C@@H](C)O)nnc(-c2ccc(C(F)(F)F)cc2C(F)(F)F)c1C	6.68	
CC(C)(CO)CNc1nnc(-c2ccc(C(F)(F)F)cc2)c2ccccc12	6.00	
C[C@@H](O)CNc1ccc(-c2ccc(C(F)(F)F)cc2C(F)(F)F)nn1	6.82	
Cc1cc(-c2ccc(C(F)(F)F)cc2C(F)(F)F)nnc1NC[C@@H](C)O	7.05	
OCCCNc1nnc(-c2ccc(C(F)(F)F)cc2Cl)c2ccccc12	6.46	

Structure (SMILES)	pIC50 [1]	further results
COCCCNc1nnc(-c2ccc(C(F)(F)F)cc2)c2ccccc12	5.77	
CC(O)CCNc1nnc(-c2ccc(C(F)(F)F)cc2)c2ccccc12 (stereo not given)	5.92	
OCCCNc1nnc(-c2cccc(C(F)(F)F)c2)c2ccccc12	4.77	
CC(C)(O)c1coc(S(=O)(=O)NC(=O)Nc2c3c(cc4c2CCC4)CCC3)c1		concentration at 1 h [2]: 2.32 µg/mL; concentration at 1 h [3]: 23.1 ng/g; Kp at 1 h [4]: 0.01; pIC50 [5]: 8.12; inhibition [6]: inactive
CC(CO)CNc1nnc(-c2ccc(C(F)(F)F)cc2)c2ccccc12 (stereo not given)	6.64	
Cc1cc(NC[C@@H](C)O)nnc1-c1ccc(C(F)(F)F)cc1O	7.77	
Cc1c(N[C@H]2CCC[C@H]2O)nnc(-c2ccc(C(F)(F)F)cc2O)c1C	7.57	
Cc1c(N[C@@H]2CCCC[C@H]2O)nnc(-c2ccc(C(F)(F)F)cc2O)c1C		pIC50 (THP-1): 8.24; pIC50 [7]: < 5.00; microsomal CLint at 0.2 µM [8]: < 20 µL/min/mg; microsomal CLint at 0.2 µM [9]: < 20 µL/min/mg; Kp at 1 h [10]: 0.94; inhibition [11]: Active; inhibition [12]: Active; inhibition [13]: Active; pIC50 [14]: 8.20; Activity (Mus musculus [15]): Active; Activity (Mus musculus [16]): Active
Cc1cc(-c2ccc(C(F)(F)F)cc2O)nnc1NC[C@@H](C)O	6.80	
C[C@H](O)CNc1nnc(-c2ccc(C(F)(F)F)cc2)c2ccccc12	6.64	
Cc1c(N[C@H]2CCC[C@@H]2O)nnc(-c2ccc(C(F)(F)F)cc2O)c1C	6.19	
Cc1ccc(-c2nnc(NCCCO)c3ccccc23)cc1	5.70	pIC50 (THP-1): 5.51; pIC50 [7]: < 5.00; concentration at 1 h [17]: 0.36 µg/mL; concentration at 1 h [18]: 117 ng/g; Kp at 1 h [19]: 0.33
C[C@@H](O)CNc1nnc(-c2ccc(C(F)(F)F)cc2C(F)(F)F)c2ccccc12	7.24	
OCCCNc1nnc(-c2ccc(C(F)(F)F)cc2)c2ccccc12	6.43	
Cc1cc(NC[C@@H](C)O)nnc1-c1ccc(C(F)(F)F)cc1C(F)(F)F	6.70	
